In US20240269139A1, “COMPOUNDS FOR TARGETED PROTEIN DEGRADATION OF KINASES” (DANA-FARBER CANCER INSTITUTE, INC., priority 2020, published 2024):
Entries after “also recorded” stand apart in the source; their conditions may differ. Read-outs that look alike come from different tables or passages of the source.

Columns and labels:
[1] = system: protein kinases (human kinome); assay type: cell-based; conditions: for logFC GSK3B: experiment wp017
[2] = biological target: protein kinases (human kinome) (Homo sapiens, UniProt Q00537); assay type: cell-based
Chain of protein kinases (human kinome) (Homo sapiens, UniProt Q00537) (Q00537 whole entry): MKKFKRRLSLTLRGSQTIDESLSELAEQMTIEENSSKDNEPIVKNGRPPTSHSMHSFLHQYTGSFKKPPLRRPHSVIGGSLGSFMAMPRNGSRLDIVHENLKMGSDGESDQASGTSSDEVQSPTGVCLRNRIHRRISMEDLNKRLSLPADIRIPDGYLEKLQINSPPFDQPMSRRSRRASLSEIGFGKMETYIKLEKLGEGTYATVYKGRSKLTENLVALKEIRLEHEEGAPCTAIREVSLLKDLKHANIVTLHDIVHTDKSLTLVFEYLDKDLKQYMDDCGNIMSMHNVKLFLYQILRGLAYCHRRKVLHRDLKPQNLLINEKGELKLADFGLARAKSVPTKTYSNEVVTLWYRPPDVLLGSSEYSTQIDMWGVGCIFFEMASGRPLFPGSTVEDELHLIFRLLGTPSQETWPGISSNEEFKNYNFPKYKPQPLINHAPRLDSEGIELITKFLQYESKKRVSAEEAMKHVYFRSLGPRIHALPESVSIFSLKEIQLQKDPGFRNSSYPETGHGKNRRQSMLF

[3] = system: protein kinases in MOLT-4 cells; assay: Whole cell quantitative proteomics in MOLT-4 cells; conditions: MOLT-4, 1 μM, 5 h (FIG. 1J)
Procedure: Whole cell multiplexed quantitative proteomics was employed to measure changes in abundance of the proteome in response to treatment with each of the kinase degrader molecules relative to DMSO (Table 1, Appendix I).
Cells were treated with DMSO (biological triplicate) or degrader at indicated dose and time and cells were harvested by centrifugation. […] Precipitated protein was resuspended in 4 M Urea, 50 mM HEPES pH 7.4, followed by dilution to 1 M urea with the addition of 200 mM EPPS, pH 8. Proteins were first digested with LysC (1:50: enzyme:protein) for 12 hours at room temperature. The LysC digestion was diluted to 0.5 M Urea with 200 mM EPPS pH 8 followed by digestion with trypsin (1:50; enzyme:protein) for 6 hours at 37° C. Tandem mass tag (TMT) reagents (Thermo Fisher Scientific) were dissolved in anhydrous acetonitrile (ACN) according to manufacturer's instructions. […] The 10, 11, or 16-plex labeling reactions were performed for 1.5 hours at room temperature and the reaction quenched by the addition of hydroxylamine to a final concentration of 0.3% for 15 minutes at room temperature. The sample channels were combined at a 1:1 ratio, desalted using C18 solid phase extraction cartridges (Waters®) and analyzed by LC-MS for channel ratio comparison. Samples were then combined using the adjusted volumes determined in the channel ratio analysis and dried down in a speed vacuum. The combined sample was then resuspended in 1% formic acid, and acidified (pH 2-3) before being subjected to desalting with C18 SPE (Sep-Pak®, Waters®). Samples were then offline fractionated into 96 fractions by high pH reverse-phase HPLC (Agilent® LC1260) through an aeris peptide xb-c18 column (Phenomenex®) with mobile phase A containing 5% acetonitrile and 10 mM NH4HCO3 in LC-MS grade H2O, and mobile phase B containing 90% acetonitrile and 10 mM NH4HCO3 in LC-MS grade H2O (both pH 8.0). The 96 resulting fractions were then pooled in a non-continuous manner into 24 fractions and desalted using C18 solid phase extraction plates (SOLA®, Thermo Fisher Scientific) followed by subsequent mass spectrometry analysis.
Data were collected using an Orbitrap Fusion™ Lumos™ mass spectrometer (Thermo Fisher Scientific, San Jose, CA, USA) coupled with a Proxeon EASY-nLC™ 1200 LC pump (Thermo Fisher Scientific) or an Orbitrap Eclipse™ Tribrid™ mass spectrometer (Thermo Fisher Scientific, San Jose, CA, USA) coupled with an UltiMate™ 3000 RSLCnano System. Peptides were separated on an EasySpray™ ES803a/ES803a.rev2 75 μm inner diameter microcapillary column (ThermoFisher Scientific).
Data dependent MS2 spectra were acquired in the ion trap with a normalized collision energy (NCE) set at 35%, AGC target set to 1.8×10^4 and a maximum injection time of 120 ms. MS3 scans were acquired in the Orbitrap with HCD collision energy set to 55%. AGC target set to 2×10^5, maximum injection time of 150 ms, resolution at 50,000 and with a maximum synchronous precursor selection (SPS) precursors set to 10.
Proteome Discoverer™ 2.1, 2.2 or 2.4 (Thermo Fisher Scientific) was used for .RAW file processing and controlling peptide and protein level false discovery rates, assembling proteins from peptides, and protein quantification from peptides.

[4] = biological target: protein kinases (human kinome) (Homo sapiens, UniProt Q9P1W9); assay type: cell-based
Chain of protein kinases (human kinome) (Homo sapiens, UniProt Q9P1W9) (Q9P1W9 whole entry): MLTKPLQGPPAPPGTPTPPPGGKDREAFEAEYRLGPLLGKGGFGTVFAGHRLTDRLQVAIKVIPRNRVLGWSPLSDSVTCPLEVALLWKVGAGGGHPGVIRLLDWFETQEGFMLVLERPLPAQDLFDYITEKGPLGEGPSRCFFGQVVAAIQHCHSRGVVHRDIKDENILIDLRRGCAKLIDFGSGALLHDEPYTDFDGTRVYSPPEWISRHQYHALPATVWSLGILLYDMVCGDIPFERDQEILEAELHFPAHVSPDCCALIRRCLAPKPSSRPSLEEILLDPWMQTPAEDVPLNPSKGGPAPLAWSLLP

[5] = biological target: T1, protein kinases (human kinome) (Homo sapiens, UniProt O94768); assay type: cell-based
T1 sequence (O94768 1-372): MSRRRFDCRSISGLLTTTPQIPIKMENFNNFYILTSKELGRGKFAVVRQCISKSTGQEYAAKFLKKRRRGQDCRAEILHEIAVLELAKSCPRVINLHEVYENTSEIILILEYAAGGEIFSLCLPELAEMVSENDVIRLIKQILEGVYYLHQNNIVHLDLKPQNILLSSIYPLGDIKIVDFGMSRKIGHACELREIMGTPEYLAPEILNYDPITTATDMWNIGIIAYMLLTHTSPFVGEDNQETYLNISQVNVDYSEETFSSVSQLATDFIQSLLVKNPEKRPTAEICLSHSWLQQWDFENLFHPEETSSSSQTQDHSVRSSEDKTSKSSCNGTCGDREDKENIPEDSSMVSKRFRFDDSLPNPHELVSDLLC

[6] = biological target: T2, protein kinases (human kinome) (Homo sapiens, UniProt Q8TBX8); assay type: cell-based; conditions: PIP4K2C Q8TBX8-1; experiment wp017
T2 sequence (Q8TBX8 1-421): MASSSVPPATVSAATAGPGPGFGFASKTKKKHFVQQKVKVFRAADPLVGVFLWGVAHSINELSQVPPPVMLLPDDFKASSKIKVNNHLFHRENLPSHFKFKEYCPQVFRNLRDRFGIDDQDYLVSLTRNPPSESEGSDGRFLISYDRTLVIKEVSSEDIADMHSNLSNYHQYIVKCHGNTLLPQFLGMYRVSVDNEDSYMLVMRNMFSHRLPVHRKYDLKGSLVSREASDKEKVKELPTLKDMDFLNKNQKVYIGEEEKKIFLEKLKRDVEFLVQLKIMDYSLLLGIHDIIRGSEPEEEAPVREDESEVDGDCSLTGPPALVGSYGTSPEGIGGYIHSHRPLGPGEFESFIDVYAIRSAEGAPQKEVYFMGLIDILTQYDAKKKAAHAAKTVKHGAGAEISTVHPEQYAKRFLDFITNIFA

[7] = biological target: T3, protein kinases (human kinome) (Homo sapiens, UniProt Q13043); assay type: cell-based
T3 sequence (Q13043 1-487): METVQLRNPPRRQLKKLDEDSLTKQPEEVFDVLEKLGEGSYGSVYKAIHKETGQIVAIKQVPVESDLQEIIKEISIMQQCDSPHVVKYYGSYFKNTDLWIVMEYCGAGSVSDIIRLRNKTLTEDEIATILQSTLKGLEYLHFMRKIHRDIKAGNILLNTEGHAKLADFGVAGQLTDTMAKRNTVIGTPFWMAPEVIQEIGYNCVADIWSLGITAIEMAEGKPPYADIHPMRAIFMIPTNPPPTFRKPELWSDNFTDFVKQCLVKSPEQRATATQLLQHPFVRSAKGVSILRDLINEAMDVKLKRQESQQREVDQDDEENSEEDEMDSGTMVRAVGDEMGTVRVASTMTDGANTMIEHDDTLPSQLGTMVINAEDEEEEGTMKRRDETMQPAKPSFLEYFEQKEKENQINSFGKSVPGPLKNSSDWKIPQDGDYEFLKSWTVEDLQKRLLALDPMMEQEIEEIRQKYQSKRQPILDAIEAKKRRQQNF

[8] = biological target: protein kinases (human kinome) (Homo sapiens, UniProt P48730); assay type: cell-based
Chain of protein kinases (human kinome) (Homo sapiens, UniProt P48730) (P48730 whole entry): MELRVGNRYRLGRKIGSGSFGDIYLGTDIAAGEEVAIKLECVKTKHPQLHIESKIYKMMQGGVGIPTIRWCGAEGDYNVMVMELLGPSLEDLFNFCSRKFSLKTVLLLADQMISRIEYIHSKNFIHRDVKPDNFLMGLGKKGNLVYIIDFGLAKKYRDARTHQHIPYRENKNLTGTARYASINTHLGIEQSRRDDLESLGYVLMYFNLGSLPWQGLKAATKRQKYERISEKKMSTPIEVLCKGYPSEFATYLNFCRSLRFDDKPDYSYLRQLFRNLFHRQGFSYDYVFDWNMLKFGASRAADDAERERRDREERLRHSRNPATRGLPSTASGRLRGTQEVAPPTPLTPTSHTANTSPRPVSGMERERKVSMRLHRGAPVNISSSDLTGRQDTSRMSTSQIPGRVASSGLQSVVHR

[9] = biological target: protein kinases (human kinome) (Homo sapiens, UniProt O94921); assay type: cell-based
Chain of protein kinases (human kinome) (Homo sapiens, UniProt O94921) (O94921 whole entry): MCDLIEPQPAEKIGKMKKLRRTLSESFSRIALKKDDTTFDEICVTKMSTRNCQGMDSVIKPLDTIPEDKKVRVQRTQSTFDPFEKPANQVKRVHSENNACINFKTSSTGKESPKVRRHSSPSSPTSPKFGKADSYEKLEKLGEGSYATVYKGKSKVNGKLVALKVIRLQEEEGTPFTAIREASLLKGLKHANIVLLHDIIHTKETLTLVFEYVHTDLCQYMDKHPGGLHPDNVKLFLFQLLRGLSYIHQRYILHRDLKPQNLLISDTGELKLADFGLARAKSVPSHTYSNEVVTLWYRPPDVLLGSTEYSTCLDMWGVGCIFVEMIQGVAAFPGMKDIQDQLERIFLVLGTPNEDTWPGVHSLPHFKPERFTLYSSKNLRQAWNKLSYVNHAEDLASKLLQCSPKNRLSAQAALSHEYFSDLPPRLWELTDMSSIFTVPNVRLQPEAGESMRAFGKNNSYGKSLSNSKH

[10] = biological target: T4, protein kinases (human kinome) (Homo sapiens, UniProt O60285); assay type: cell-based; conditions: NUAK1 (O60285), experiment wp017
T4 sequence (O60285 1-661): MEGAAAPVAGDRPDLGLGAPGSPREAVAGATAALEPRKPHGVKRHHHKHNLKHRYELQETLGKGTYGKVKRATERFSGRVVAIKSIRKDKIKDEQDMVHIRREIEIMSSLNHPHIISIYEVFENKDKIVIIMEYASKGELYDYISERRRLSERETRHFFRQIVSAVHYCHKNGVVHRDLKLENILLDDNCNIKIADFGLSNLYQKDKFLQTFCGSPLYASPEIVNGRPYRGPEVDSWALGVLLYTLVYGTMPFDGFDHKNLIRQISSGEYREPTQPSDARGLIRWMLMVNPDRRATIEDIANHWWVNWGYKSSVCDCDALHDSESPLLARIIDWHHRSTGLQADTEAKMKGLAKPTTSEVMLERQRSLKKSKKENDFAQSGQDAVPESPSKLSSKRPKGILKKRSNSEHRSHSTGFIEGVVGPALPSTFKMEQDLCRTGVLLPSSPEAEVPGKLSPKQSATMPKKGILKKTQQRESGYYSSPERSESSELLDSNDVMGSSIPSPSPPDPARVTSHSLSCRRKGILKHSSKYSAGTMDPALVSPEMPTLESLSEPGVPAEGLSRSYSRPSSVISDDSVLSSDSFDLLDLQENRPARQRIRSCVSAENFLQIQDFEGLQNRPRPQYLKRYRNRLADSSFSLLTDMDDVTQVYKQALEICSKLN

[11] = biological target: protein kinases (human kinome) (Homo sapiens, UniProt P49840); assay type: cell-based; conditions: GSK3A P49840; experiment wp017
Chain of protein kinases (human kinome) (Homo sapiens, UniProt P49840) (P49840 whole entry): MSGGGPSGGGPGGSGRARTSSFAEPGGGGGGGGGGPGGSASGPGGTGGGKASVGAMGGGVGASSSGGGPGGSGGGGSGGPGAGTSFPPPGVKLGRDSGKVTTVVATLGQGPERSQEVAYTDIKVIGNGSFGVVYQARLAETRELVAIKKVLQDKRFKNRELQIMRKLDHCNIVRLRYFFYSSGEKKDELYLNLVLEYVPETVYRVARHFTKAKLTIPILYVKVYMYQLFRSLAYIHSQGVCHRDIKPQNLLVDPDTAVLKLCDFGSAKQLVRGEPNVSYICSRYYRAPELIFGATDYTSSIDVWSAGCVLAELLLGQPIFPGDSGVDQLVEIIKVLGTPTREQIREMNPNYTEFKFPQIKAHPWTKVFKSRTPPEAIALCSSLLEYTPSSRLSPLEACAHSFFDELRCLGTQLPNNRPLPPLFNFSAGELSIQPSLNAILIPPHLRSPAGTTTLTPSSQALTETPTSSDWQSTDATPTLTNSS

## Cc1ncsc1-c1ccc([C@H](C)NC(=O)[C@@H]2C[C@@H](O)CN2C(=O)[C@@H](NC(=O)CCOCCOCCNc2nccc(-c3sc(C(C)(C)C)nc3-c3cccc(NS(=O)(=O)c4c(F)cccc4F)c3F)n2)C(C)(C)C)cc1 [DD-03-156, (2S,4R)-1-((S)-2-(3-(2-(2-((4-(2-(tert-butyl)-4-(3-((2,6-difluorophenyl)sulfonamido)-2-fluorophenyl)thiazol-5-yl)pyrimidin-2-yl)amino)ethoxy)ethoxy)propanamido)-3,3-dimethylbutanoyl)-4-hydroxy-N—((S)-1-(4-(4-methylthiazol-5-yl)phenyl)ethyl)pyrrolidine-2-2377 carboxamide]
[1]; as stated for the structure in the embodiments
  kinases the bifunctional compound degrades: CDK17, LIMK1, and LIMK2
[1]; kinases significantly downregulated vs DMSO (fold change cutoff −1.25, P-value<0.01), ≤8 h, 0.1-5 μM degrader, 7 cell lines
  Kinase hits: CDK17, LIMK1, LIMK2
[1]; number of degraded kinases per library compound
  Total no. kinase hits: 3
[2]
  preference for degrading CDK17: strong preference for degrading CDK17
[3]
  degradation profile (potency and selectivity): potent and selective degradation of only CDK17 and LIMK2; also recorded: exquisite

## Nc1ncc(-c2ccc(S(=O)(=O)N(CCCNC(=O)CCOCCOCCOCCOCCOCCNc3cccc4c3C(=O)N(C3CCC(=O)NC3=O)C4=O)C3CC3)cc2F)cc1-c1ccc2c(c1)CCNC2=O (stereo not shown) [WH.9533.153]
[1]; Accession P49841-2, direction down
  logFC GSK3B: −1.317
[1]; GSK3B P49841-2
  logFC GSK3B: −1.317
[4]; Experiment wp017
  logFC of PIM2 (Q9P1W9): −0.4936
[4]; PIM2 (Q9P1W9), experiment wp017
  logFC: −0.4936
[5]; Experiment wp017, direction down
  logFC STK17B (O94768): −0.7595
[5]; STK17B (O94768), experiment wp017
  logFC: −0.7595
[6]
  logFC: −0.7144
[7]; Experiment wp017
  logFC of STK4 (Q13043-1): −0.4936
[7]; STK4 (Q13043-1), experiment wp017
  logFC: −0.4936
[8]; Accession P48730-1, experiment wp017, direction down
  logFC CSNK1D: −0.7788
[8]; Experiment wp017
  logFC of CSNK1D (P48730-1): −0.7788
[9]; CDK14 (O94921-1), experiment wp017
  logFC: −0.4637
[9]; Experiment wp017
  logFC of CDK14 (O94921-1): −0.4637
[10]
  logFC: −1.367
[10]; direction down
  logFC: −1.367
[11]
  logFC: −0.4833
  logFC GSK3A: −0.4833
